The text below walks through data of paper PMC5541560, “A biomimetic semisynthesis enables structural elucidation of selaginellin U: a tautomeric cyclic alkynylphenol from Selaginella tamariscina” (Royal Society Open Science, 2017).

T1 sequence (P56817 46-457): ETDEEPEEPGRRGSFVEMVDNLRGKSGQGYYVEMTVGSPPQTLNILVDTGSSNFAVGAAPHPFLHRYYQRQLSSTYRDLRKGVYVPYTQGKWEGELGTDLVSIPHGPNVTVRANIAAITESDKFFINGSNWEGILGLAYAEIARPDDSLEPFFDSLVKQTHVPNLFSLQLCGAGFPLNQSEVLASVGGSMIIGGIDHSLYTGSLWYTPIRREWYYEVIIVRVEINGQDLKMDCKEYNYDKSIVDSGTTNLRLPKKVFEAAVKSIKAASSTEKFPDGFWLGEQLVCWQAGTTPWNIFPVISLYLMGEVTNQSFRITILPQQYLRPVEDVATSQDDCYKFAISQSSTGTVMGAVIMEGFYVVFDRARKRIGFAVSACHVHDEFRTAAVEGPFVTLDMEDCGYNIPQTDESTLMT

The first experiment addresses T1, β-site amyloid precursor protein cleaving enzyme 1 (BACE1) (Homo sapiens, UniProt P56817). As to the kind of experiment: FRET peptide substrate assay (Sigma kit CS0010), purified baculovirus-expressed BACE1. The experiment is classed as biochemical.
The compound `O=C1C=CC(=C(c2ccc(O)cc2)c2c(-c3ccc(O)cc3)ccc(CO)c2C#Cc2ccc(O)cc2)C=C1` [compound 3, selaginellin] displayed a half-inhibitory concentration (IC50) of 81.2 µM.
On the same count and under the same terms, next, `Cc1ccc(-c2ccc(O)cc2)c(C(=C2C=CC(=O)C=C2)c2ccc(O)cc2)c1C#Cc1ccc(O)cc1` [compound 13, selaginellin B]: 51.1 µM; `O=Cc1ccc(-c2ccc(O)cc2)c(C(=C2C=CC(=O)C=C2)c2ccc(O)cc2)c1C#Cc1ccc(O)cc1` [compound 16, selaginellin O]: 48.9 µM.

The target of another experiment is T1, β-site amyloid precursor protein cleaving enzyme 1 (BACE1). Description: biochemical. Further details: FRET peptide substrate cleavage assay (Sigma kit CS0010), purified baculovirus-expressed BACE1, inhibition. How it is done:
Compounds 1–3 and 7–16 were tested for β-site amyloid precursor protein (APP) cleaving enzyme 1 (BACE1) inhibitory activity. BACE1 inhibitory evaluation was performed with a fluorescence resonance energy transfer (FRET) assay kit supplied by Sigma (Kit CS0010, St. Louis, USA). The kit used purified baculovirus-expressed BACE1 and FRET peptide substrates.
Take `O=C1OC(c2ccc(O)cc2)(c2ccc(O)cc2)c2c1cccc2-c1ccc(O)cc1` [compound 1, selaginellin T]: the 50% inhibitory concentration (IC50) was more than 100 µM.
On the same count and under the same terms, next, `O=C1C=CC(=C(c2ccc(O)cc2)c2c(-c3ccc(O)cc3)ccc3c(=O)oc(-c4ccc(O)cc4)cc23)C=C1` [compound 2, selaginellin U]: more than 100 µM; `OCc1ccc2c(c1C#Cc1ccc(O)cc1)C(c1ccc(O)cc1)(c1ccc(O)cc1)c1cc(O)ccc1-2` [compound 7, selaginpulvilin A]: more than 100 µM.
Regarding `Cc1ccc(-c2ccc(O)cc2)c(C(=C2C=CC(=O)C=C2)c2ccccc2)c1C#Cc1ccc(O)cc1` [compound 12, selaginellin A], the IC50 is more than 100 µM.
Regarding `COc1ccc(C(=C2C=CC(=O)C=C2)c2c(-c3ccc(O)cc3)ccc(CO)c2C#Cc2ccc(O)cc2)cc1` [compound 15, selaginellin M], the IC50 was more than 100 µM.

Broadly, the IC50 is the concentration that gives 50% inhibition.
